The text below walks through data of article PMC11435625, “In Vitro Hepatic Clearance Evaluations of Per- and Polyfluoroalkyl Substances (PFAS) across Multiple Structural Categories” (Toxics, 2024).

The subject of one data set is plasma protein. The settings on record: cited from earlier work; for Mean fu: fraction unbound in plasma, input for IVIVE calculations; for fup (fraction unbound in plasma): human plasma.
In data set [1] the test system is pooled primary human hepatocyte suspensions. Description: Hepatic clearance assay (substrate depletion, LC-MS). The settings on record: in µL/min/10^6 cells; for CLint for HTTK: CLint value carried into HTTK/IVIVE; for in vitro CLint exp assay / Unadj Clint: pooled primary human hepatocyte suspensions; for Unadj Clint: unadjusted hepatic intrinsic clearance, Table S4. In short, it runs like this: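 Substrate depletion at 1 μM PFAS in pooled cryopreserved human hepatocytes (~0.5 × 10^6 viable cells/mL, 50-donor pool), 37 °C with shaking, sampled 0–240 min in triplicate. Quantified by LC-MS in negative ion mode against matrix-matched calibration; media-only or heat-inactivated cells as nonmetabolic-loss controls.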

The nature of data set [2]: IVIVE: steady-state concentration (Css), generic HTTK model. Further details: species or system human. The settings on record: for Css (mg/L) / Css (uM): Assuming 1 mg/kg/day dose rate, BW 70 kg; for CLhep: QL 1500000 uL/min; for Fub: fub=fup/(B:P), Fub set to 1 if needed; for CLint: scaled to whole liver: HPGL 110 mill cells/g, Vl 1596 g; for Css: human steady-state concentration, 1 mg/kg/day exposure rate, loss of parent compound only. In outline:
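Human Css estimated by IVIVE: plasma protein binding converted to blood fraction unbound via blood-to-plasma partitioning, and experimental Clint scaled with liver scalars to whole liver clearance. AEDs then derived by reverse dosimetry from Css and PFAS in vitro POD, defined as fifth-percentile AC50.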

In data set [3] the test system is pooled primary human hepatocyte suspensions. Description: Bayesian (MCMC, invitroTKstats) analysis of hepatic clearance data. The following applies: Level-4 Bayesian estimate, posterior median; Clint.1 series (Clint.10 all NA).
From the text: Markov Chain Monte Carlo was employed in a Bayesian analysis to estimate uncertainty of the hepatic clearance point measures as previously described, but with some modifications [10]. Briefly, after organizing PFAS-level data into a single file, the relationship between the relevant measurement process parameters was described in a graphic model in JAGS language [13] interfaced through R. For hepatic clearance data, the model describes the PFAS-specific mass spectrometric response factor between analyte peak ratio (to internal standard) and chemical concentration. […] The assumed prior for whether the chemical degraded abiotically in vitro followed a Bernoulli distribution with a 5% chance of abiotic degradation. Separate biotic and abiotic components for chemical elimination were estimated, each with a slope following an assumed uniform prior distribution bounded between the zero and the -log (limit of quantitation/Ctest). In scenarios where an external calibration without internal standard was used, the response factor was calculated using the analyte peak alone, introducing additional uncertainty due to the inability to normalize for recovery issues. The model was analyzed jointly by JAGS using five Markov chains. Convergence was identified by requiring the five chains to be consistent, as indicated by the potential scale reduction factor [14] being less than 1.1. The analysis was performed using EPA-developed R package invitroTKstats, available upon request.
A short description of data set [4]: Administered equivalent dose (AED) by reverse dosimetry. The arrangement: species or system human. The following applies: from Css and AC50 POD by reverse dosimetry. Here is the method: IVIVE was performed as previously described to calculate human steady-state concentrations (Css). Briefly, experimental plasma protein binding data presented elsewhere were transformed to fraction unbound in blood using blood-to-plasma partitioning values. Experimental Clint values generated here are used in conjunction with relevant liver scalars to scale up to estimate whole liver clearance. […] Once Css values were established, these were used with the PFAS-specific in vitro POD data to calculate the administered equivalent doses (AEDs) using reverse dosimetry. […] The fifth-percentile AC50 value was used to define the in vitro POD. All relevant inputs, scalars, and calculations are provided in Supplementary Information, as indicated in the results.

Regarding `O=C(O)C(F)(F)C(F)(F)C(F)(F)C(F)(F)C(F)(F)C(F)(F)C(F)(F)C(F)F` [9-H-Perfluorononanoic acid (9H-PFNA)], in the data set with plasma protein, the Mean fu is given as 0.0009. In data set [1], the “CLint for HTTK” value came to 0 and the “in vitro CLint exp assay” value was determined as 0. Further, in data set [2], the “Css (mg/L)” value came to 268.16 mg/L, the “Css (uM)” value was 601.28 µM, the “CLhep” value is given as 0.000 L/h and the Fub is 0.001636. Moreover, the “CLint” value in data set [2] is given as 0 µL/min. In data set [3], the Clint.1.Med is reported as 0.

Take `O=C(O)C(F)(F)C(F)(F)C(F)(F)C(F)(F)C(F)(F)C(F)(F)C(F)(F)C(F)F` [9H-PFNA, 9-H-Perfluorononanoic acid]: the “fup (fraction unbound in plasma)” value in the data set with plasma protein is recorded as 0.0009. In data set [1], the “Unadj Clint” value was 0.00. Moreover, the Css in data set [2] amounted to 601.28 µM. The AED in data set [4] came out at 0.004 mg/kg/day.

Regarding `O=C(O)C(F)(F)C(F)(F)C(F)(F)C(F)(F)C(F)(F)C(F)(F)C(F)(F)C(F)(F)C(F)(F)C(F)F` [11H-PFUnDA, 11-H-Perfluoroundecanoic acid], the “fup (fraction unbound in plasma)” value in the data set on plasma protein is reported as 0.0015. The “Unadj Clint” value in data set [1] is on record as 0.00. For the same molecule, the Css in data set [2] is 294.69 µM. Further, in data set [4], the AED is 0.03 mg/kg/day.

For `O=C(O)C(F)(F)C(F)(F)C(F)(F)C(F)(F)C(F)(F)C(F)(F)C(F)(F)C(F)(F)C(F)(F)F` [PFDA, Perfluorodecanoic acid], the “fup (fraction unbound in plasma)” value in the data set on plasma protein was 0.0027. The “Unadj Clint” value in data set [1] came out at 0.00. In addition, the Css in data set [2] worked out at 173.91 µM. Besides, the AED in data set [4] is listed as 0.06 mg/kg/day.

In the case of `O=C(O)C(F)(F)C(F)(F)C(F)(F)C(F)(F)C(F)(F)C(F)(F)F` [PFHpA, Perfluoroheptanoic acid], in the data set with plasma protein, the “fup (fraction unbound in plasma)” value is given as 0.0004. Besides, the “Unadj Clint” value in data set [1] stood at 3.12. Besides, the Css in data set [2] is 1657.68 µM. Further, in data set [4], the AED stood at 0.01 mg/kg/day.

With `O=S(=O)(O)C(F)(F)C(F)(F)C(F)(F)C(F)(F)C(F)(F)C(F)(F)C(F)(F)F` [PFHpS, Perfluoroheptanesulfonic acid], the “fup (fraction unbound in plasma)” value with plasma protein is given as 0.0006. The “Unadj Clint” value in data set [1] is 1.23. The Css in data set [2] worked out at 893.98 µM. The AED in data set [4] was 0.02 mg/kg/day.

With `O=C(O)C(F)(F)C(F)(F)C(F)(F)C(F)(F)C(F)(F)F` [PFHxA, Perfluorohexanoic acid], in the data set on plasma protein, the “fup (fraction unbound in plasma)” value is 0.0068. For the same molecule, in data set [1], the “Unadj Clint” value was found to be 1.62. For the same molecule, the Css in data set [2] worked out at 113.04 µM. Besides, in data set [4], the AED turned out to be 0.08 mg/kg/day.

In the case of `O=S(=O)(O)C(F)(F)C(F)(F)OC(F)(F)C(F)(F)F` [Perfluoro(2-ethoxyethane)sulfonic acid], in the data set on plasma protein, the Mean fu is recorded as 0.0015. In data set [1], the “CLint for HTTK” value is reported as 5.51, the “in vitro CLint exp assay” value was 5.51 and the “Unadj Clint” value came to 5.51. For the same molecule, in data set [2], the “Css (mg/L)” value is listed as 16.68 mg/L, the “Css (uM)” value stood at 52.79 µM, the “CLhep” value worked out at 0.158 L/h and the Fub came to 0.002727. The “CLint” value in data set [2] is 967336 µL/min. In data set [3], the Clint.1.Med is on record as 266.

On to `O=C(O)C(F)(F)OC(F)(F)C(F)(F)OC(F)(F)C(F)(F)OC(F)(F)F` [Perfluoro-3,6,9-trioxadecanoic acid], for which, in the data set on plasma protein, the Mean fu was 0.0003. Besides, in data set [1], the “CLint for HTTK” value came out at 0, the “in vitro CLint exp assay” value is listed as 0 and the “Unadj Clint” value is 0.00. In addition, in data set [2], the “Css (mg/L)” value is 804.48 mg/L, the “Css (uM)” value stood at 1952.80 µM, the “CLhep” value is reported as 0.000 L/h and the Fub worked out at 0.0005455. In data set [2], the “CLint” value was determined as 0 µL/min. Besides, in data set [3], the Clint.1.Med is given as 0.

In the case of `O=C(O)C(F)(F)OC(F)(F)C(F)(F)OC(F)(F)C(F)(F)C(F)(F)C(F)(F)F` [Perfluoro-3,6-dioxadecanoic acid], in the data set with plasma protein, the Mean fu was 0.0007. In addition, in data set [1], the “CLint for HTTK” value is recorded as 0, the “in vitro CLint exp assay” value was 0 and the “Unadj Clint” value was determined as 0.00. In data set [2], the “Css (mg/L)” value came to 344.78 mg/L, the “Css (uM)” value turned out to be 773.10 µM, the “CLhep” value is on record as 0.000 L/h and the Fub is given as 0.001273. Besides, in data set [2], the “CLint” value stood at 0 µL/min. Further, in data set [3], the Clint.1.Med was 0.

Take `O=S(=O)(O)C(F)(F)C(F)(F)C(F)(F)C(F)(F)F` [Perfluorobutanesulfonic acid (PFBS)]: the Mean fu with plasma protein was 0.0128. In addition, in data set [1], the “CLint for HTTK” value was found to be 4.75 and the “in vitro CLint exp assay” value is on record as 4.75. Besides, in data set [2], the “Css (mg/L)” value is listed as 2.25 mg/L, the “Css (uM)” value stood at 7.51 µM, the “CLhep” value turned out to be 1.150 L/h and the Fub worked out at 0.02327. The “CLint” value in data set [2] was 833910 µL/min. Also, the Clint.1.Med in data set [3] is 0.

As for `O=C(O)C(F)(F)C(F)(F)C(F)(F)F` [Perfluorobutanoic acid (PFBA)], the Mean fu in the data set with plasma protein is on record as 0.093. Further, in data set [1], the “CLint for HTTK” value came out at 0 and the “in vitro CLint exp assay” value is on record as 0. In addition, in data set [2], the “Css (mg/L)” value is 2.60 mg/L, the “Css (uM)” value was found to be 12.13 µM, the “CLhep” value was 0.000 L/h and the Fub worked out at 0.1691. Further, the “CLint” value in data set [2] is on record as 0 µL/min. Besides, the Clint.1.Med in data set [3] is 0.

For the molecule `O=C(O)C(F)(F)C(F)(F)C(F)(F)C(F)(F)C(F)(F)C(F)(F)C(F)(F)C(F)(F)C(F)(F)F` [Perfluorodecanoic acid (PFDA)], in the data set with plasma protein, the Mean fu was 0.0027. Moreover, in data set [1], the “CLint for HTTK” value is on record as 0 and the “in vitro CLint exp assay” value is listed as 0. Moreover, in data set [2], the “Css (mg/L)” value worked out at 89.39 mg/L, the “Css (uM)” value was determined as 173.91 µM, the “CLhep” value came to 0.000 L/h and the Fub came out at 0.004909. For the same molecule, in data set [2], the “CLint” value was found to be 0 µL/min. The Clint.1.Med in data set [3] is recorded as 0.

Regarding `O=C(O)C(F)(F)C(F)(F)C(F)(F)C(F)(F)C(F)(F)C(F)(F)F` [Perfluoroheptanoic acid (PFHpA)], the Mean fu with plasma protein is 0.0004. Also, in data set [1], the “CLint for HTTK” value is listed as 0 and the “in vitro CLint exp assay” value is listed as 3.12. Besides, in data set [2], the “Css (mg/L)” value is on record as 603.36 mg/L, the “Css (uM)” value was determined as 1657.68 µM, the “CLhep” value is 0.000 L/h and the Fub is recorded as 0.0007273. The “CLint” value in data set [2] was determined as 0 µL/min. Besides, in data set [3], the Clint.1.Med is given as 0.

Consider `O=C(O)C(F)(F)C(F)(F)C(F)(F)C(F)(F)C(F)(F)F` [Perfluorohexanoic acid (PFHxA)], for which the Mean fu in the data set with plasma protein is given as 0.0068. Further, in data set [1], the “CLint for HTTK” value is recorded as 0 and the “in vitro CLint exp assay” value is 1.62. Further, in data set [2], the “Css (mg/L)” value is reported as 35.49 mg/L, the “Css (uM)” value stood at 113.04 µM, the “CLhep” value stood at 0.000 L/h and the Fub was determined as 0.01236. Further, the “CLint” value in data set [2] was found to be 0 µL/min. In addition, in data set [3], the Clint.1.Med is reported as 0.

As to `O=C(O)C(F)(F)C(F)(F)C(F)(F)C(F)(F)C(F)(F)C(F)(F)C(F)(F)C(F)(F)C(F)(F)C(F)(F)F` [Perfluoroundecanoic acid (PFUnDA)], in the data set on plasma protein, the Mean fu is on record as 0.0116. Further, in data set [1], the “CLint for HTTK” value came to 0 and the “in vitro CLint exp assay” value is listed as 0. Besides, in data set [2], the “Css (mg/L)” value came out at 20.81 mg/L, the “Css (uM)” value was 36.89 µM, the “CLhep” value is reported as 0.000 L/h and the Fub was determined as 0.02109. Besides, the “CLint” value in data set [2] is listed as 0 µL/min. Further, the Clint.1.Med in data set [3] is 0.

For the molecule `O=C([O-])C(F)(F)C(F)(F)C(F)(F)C(F)(F)C(F)(F)C(F)(F)C(F)(F)F.[K+]` [Potassium perfluorooctanoate (KPFOA)], the Mean fu with plasma protein is listed as 0.0018. Further, in data set [1], the “CLint for HTTK” value is listed as 0 and the “in vitro CLint exp assay” value is listed as 0. Further, in data set [2], the “Css (mg/L)” value came out at 134.08 mg/L, the “Css (uM)” value turned out to be 323.88 µM, the “CLhep” value stood at 0.000 L/h and the Fub worked out at 0.003273. Further, in data set [2], the “CLint” value was 0 µL/min. In data set [3], the Clint.1.Med was 0.

In the case of `O=C([O-])C(F)(F)C(F)(F)C(F)(F)C(F)(F)C(F)(F)C(F)(F)C(F)(F)F.[Na+]` [Sodium perfluorooctanoate (NaPFOA)], in the data set with plasma protein, the Mean fu is recorded as 0.0006. In data set [1], the “CLint for HTTK” value is given as 0 and the “in vitro CLint exp assay” value stood at 0. In data set [2], the “Css (mg/L)” value was determined as 402.24 mg/L, the “Css (uM)” value is 971.65 µM, the “CLhep” value is given as 0.000 L/h and the Fub is given as 0.001091. Moreover, in data set [2], the “CLint” value was 0 µL/min. Besides, the Clint.1.Med in data set [3] is reported as 0.
